Data reported in ChEMBL document CHEMBL1149112, “Predicting the cell differentiation activity of 1 alpha,25-dihydroxyvitamin D3 side chain analogues from docking simulations” (J Med Chem, 2004).

What was measured:
[1] = target: T1, Vitamin D3 receptor (Homo sapiens) (UniProt P11473); assay: Binding affinity against Vitamin D3 receptor with reference to compound 1
T1 sequence (whole entry): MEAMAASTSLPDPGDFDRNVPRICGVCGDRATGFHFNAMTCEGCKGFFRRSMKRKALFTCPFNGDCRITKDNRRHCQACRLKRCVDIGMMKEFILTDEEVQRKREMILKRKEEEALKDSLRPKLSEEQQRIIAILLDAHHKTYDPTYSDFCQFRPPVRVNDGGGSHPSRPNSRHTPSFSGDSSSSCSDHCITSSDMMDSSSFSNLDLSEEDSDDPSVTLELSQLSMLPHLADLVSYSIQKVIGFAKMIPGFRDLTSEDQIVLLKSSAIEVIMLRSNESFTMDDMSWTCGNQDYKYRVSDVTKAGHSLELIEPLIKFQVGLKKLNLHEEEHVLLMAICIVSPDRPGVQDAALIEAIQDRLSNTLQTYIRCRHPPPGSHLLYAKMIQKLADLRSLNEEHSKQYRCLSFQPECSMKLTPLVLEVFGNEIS

[2] = target: T1, Vitamin D3 receptor (Homo sapiens); assay: Binding affinity for Vitamin D3 receptor compared to compound 1; value ranges from 5-10
[3] = target: T1, Vitamin D3 receptor (Homo sapiens); assay: Binding affinity against Vitamin D3 receptor with reference to compound 1; value ranges from 15-30
[4] = target: T1, Vitamin D3 receptor (Homo sapiens); assay: Binding affinity against Vitamin D3 receptor with reference to compound 1; value ranges from 2-5

| SMILES | A/Ad [1] | other results |
| --- | --- | --- |
| C=C1/C(=C/C=C2/CCC[C@]3(C)C([C@H](C)OCCCC(O)(CC)CC)CC[C@@H]23)C[C@@H](O)C[C@@H]1O (single isomer, unassigned) | 20 | – |
| C=C1/C(=C/C=C2/CCC[C@]3(C)[C@@H]([C@@H](C)CCCC(O)(CC)CC)CC[C@@H]23)C[C@@H](O)C[C@@H]1O | 100 | – |
| C=C1/C(=C/C=C2/CCC[C@]3(C)C(C(C)OCCC(C)(C)O)CC[C@@H]23)C[C@@H](O)C[C@@H]1O (single isomer, unassigned) | – | A/Ad [2]: 10 |
| C=C1/C(=C/C=C2/CCC[C@]3(C)[C@@H](C(C)OCCC(O)(CC)CC)CC[C@@H]23)C[C@@H](O)C[C@@H]1O (some centres undefined) | – | A/Ad [3]: 30 |
| C=C1/C(=C/C=C2/CCC[C@]3(C)[C@@H]([C@H](C)CCCC(O)(CC)CC)CC[C@@H]23)C[C@@H](O)C[C@@H]1O | – | A/Ad [4]: 5 |
| C=C1/C(=C/C=C2/CCC[C@]3(C)[C@@H](C(C)COCC(C)(C)O)CC[C@@H]23)C[C@@H](O)C[C@@H]1O (some centres undefined) | 0.2 | – |

Now from value to compound, other results behind:

| A/Ad [1] | SMILES | other results |
| --- | --- | --- |
| 200000 | C=C1/C(=C/C=C2/CCC[C@]3(C)[C@@H]([C@@H](C)OCCCC(O)(CC)CC)CC[C@@H]23)C[C@@H](O)C[C@@H]1O | – |
| 5 | C=C1/C(=C/C=C2/CCC[C@@]3(C)[C@H]2CC[C@H]3[C@@H](C)CCCCC(O)(CC)CC)C[C@@H](O)C[C@@H]1O | – |
| 200 | C=C1/C(=C/C=C2/CCC[C@]3(C)[C@@H]([C@@H](C)CCCCC(O)(CC)CC)CC[C@@H]23)C[C@@H](O)C[C@@H]1O | – |
